Source: publication PMC4008261, “Rewiring of regenerated axons by combining treadmill training with semaphorin3A inhibition” (Molecular Brain, 2014)

Key:
Assay in all cases: Kinase inhibition test
Type in all cases: biochemical
TrkB = TrkB (Homo sapiens, UniProt Q16620)
Excerpt: (§1) Table 2 Pharmacological profile of SM-345431 (part 2) | column: IC50 (μm)

PI 3-Kγ = PI 3-Kγ (Homo sapiens, UniProt P48736)
Excerpt: as §1

Fyn = Fyn (Homo sapiens, UniProt P06241)
Excerpt: as §1

MEK1 = MEK1 (Homo sapiens, UniProt Q02750)
Excerpt: as §1

EphA2 = EphA2 (Homo sapiens, UniProt P29317)
Excerpt: as §1

ROCK-I = ROCK-I (Homo sapiens, UniProt Q13464)
Excerpt: as §1

MAPK2 = MAPK2 (Homo sapiens, UniProt P28482)
Excerpt: as §1

SAPK2a = SAPK2a (Homo sapiens, UniProt Q16539)
Excerpt: as §1

EGFR = EGFR (Homo sapiens, UniProt P00533)
Excerpt: as §1

CDK5/p35 = CDK5/p35 (Homo sapiens, UniProt Q00535)
Excerpt: as §1

KDR = KDR (Homo sapiens, UniProt P35968)
Excerpt: as §1

FGFR1 = FGFR1 (Homo sapiens, UniProt P11362)
Excerpt: as §1

MEK4 = MEK4 (Homo sapiens, UniProt P45985)
Excerpt: as §1

EphB2 = EphB2 (Homo sapiens, UniProt P29323)
Excerpt: as §1

Flt3 = Flt3 (Homo sapiens, UniProt P36888)
Excerpt: as §1

cSRC = cSRC (Homo sapiens, UniProt P12931)
Excerpt: as §1

IGF-1R = IGF-1R (Homo sapiens, UniProt P08069)
Excerpt: as §1

Fes = Fes (Homo sapiens, UniProt P07332)
Excerpt: as §1

CaMKII = biological target: CaMKII
Excerpt: as §1

FGFR4 = FGFR4 (Homo sapiens, UniProt P22455)
Excerpt: as §1

PAK2 = PAK2 (Homo sapiens, UniProt Q13177)
Excerpt: as §1

Flt1 = Flt1 (Homo sapiens, UniProt P17948)
Excerpt: as §1

PKBα = PKBα (Homo sapiens, UniProt P31749)
Excerpt: as §1

EphB4 = EphB4 (Homo sapiens, UniProt P54760)
Excerpt: as §1

MKK6 = MKK6 (Homo sapiens, UniProt P52564)
Excerpt: as §1

PKCγ = PKCγ (Homo sapiens, UniProt P05129)
Excerpt: as §1

EphA4 = EphA4 (Homo sapiens, UniProt P54764)
Excerpt: as §1

GSK3β = GSK3β (Homo sapiens, UniProt P49841)
Excerpt: as §1

JAK3 = JAK3 (Homo sapiens, UniProt P52333)
Excerpt: as §1

PKBβ = PKBβ (Homo sapiens, UniProt P31751)
Excerpt: as §1

PAK4 = PAK4 (Homo sapiens, UniProt O96013)
Excerpt: as §1

FGFR3 = FGFR3 (Homo sapiens, UniProt P22607)
Excerpt: as §1

FGFR2 = FGFR2 (Homo sapiens, UniProt P21802)
Excerpt: as §1

PAK4, sequence (O96013 whole entry, species assumed): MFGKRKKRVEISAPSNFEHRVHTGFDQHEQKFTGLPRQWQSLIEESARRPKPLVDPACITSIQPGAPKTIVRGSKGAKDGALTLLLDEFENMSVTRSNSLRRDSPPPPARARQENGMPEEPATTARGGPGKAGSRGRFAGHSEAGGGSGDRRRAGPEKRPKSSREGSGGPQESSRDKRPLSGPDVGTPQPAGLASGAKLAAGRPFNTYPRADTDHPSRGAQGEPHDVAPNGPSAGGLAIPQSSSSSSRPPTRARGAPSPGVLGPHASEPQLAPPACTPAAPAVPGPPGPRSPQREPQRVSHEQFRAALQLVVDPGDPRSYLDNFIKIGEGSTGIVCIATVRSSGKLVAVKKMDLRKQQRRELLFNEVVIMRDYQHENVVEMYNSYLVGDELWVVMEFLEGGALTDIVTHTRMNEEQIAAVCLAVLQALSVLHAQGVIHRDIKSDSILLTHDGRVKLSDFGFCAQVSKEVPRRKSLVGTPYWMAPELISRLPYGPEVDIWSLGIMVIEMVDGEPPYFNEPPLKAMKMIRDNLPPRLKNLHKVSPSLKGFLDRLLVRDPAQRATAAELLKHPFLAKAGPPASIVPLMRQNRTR
EphA4, sequence (P54764 20-986, species assumed): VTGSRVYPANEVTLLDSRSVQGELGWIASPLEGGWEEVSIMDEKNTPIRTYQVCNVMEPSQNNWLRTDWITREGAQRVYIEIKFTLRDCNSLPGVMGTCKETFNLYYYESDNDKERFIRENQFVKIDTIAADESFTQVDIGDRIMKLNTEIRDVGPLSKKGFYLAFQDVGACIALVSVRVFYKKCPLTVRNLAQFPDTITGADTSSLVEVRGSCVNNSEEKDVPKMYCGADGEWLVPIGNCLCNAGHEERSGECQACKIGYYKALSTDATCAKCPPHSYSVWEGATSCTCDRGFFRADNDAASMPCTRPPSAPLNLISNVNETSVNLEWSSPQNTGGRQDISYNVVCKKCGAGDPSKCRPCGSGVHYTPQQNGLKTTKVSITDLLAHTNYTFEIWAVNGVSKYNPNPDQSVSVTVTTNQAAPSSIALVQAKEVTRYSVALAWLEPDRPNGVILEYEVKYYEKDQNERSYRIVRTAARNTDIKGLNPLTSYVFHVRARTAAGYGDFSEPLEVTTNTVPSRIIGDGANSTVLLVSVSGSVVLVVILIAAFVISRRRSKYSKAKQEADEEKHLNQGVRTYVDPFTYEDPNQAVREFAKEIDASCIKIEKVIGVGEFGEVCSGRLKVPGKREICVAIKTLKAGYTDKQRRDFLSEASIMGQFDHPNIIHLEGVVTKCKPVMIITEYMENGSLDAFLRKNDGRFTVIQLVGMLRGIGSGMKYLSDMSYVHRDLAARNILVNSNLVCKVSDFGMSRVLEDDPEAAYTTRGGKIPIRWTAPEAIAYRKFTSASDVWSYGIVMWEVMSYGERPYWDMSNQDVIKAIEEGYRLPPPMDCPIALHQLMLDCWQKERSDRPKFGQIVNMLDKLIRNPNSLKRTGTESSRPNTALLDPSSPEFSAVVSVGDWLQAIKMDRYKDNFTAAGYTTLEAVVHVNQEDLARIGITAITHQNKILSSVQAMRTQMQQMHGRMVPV
Fes, sequence (P07332 whole entry, species assumed): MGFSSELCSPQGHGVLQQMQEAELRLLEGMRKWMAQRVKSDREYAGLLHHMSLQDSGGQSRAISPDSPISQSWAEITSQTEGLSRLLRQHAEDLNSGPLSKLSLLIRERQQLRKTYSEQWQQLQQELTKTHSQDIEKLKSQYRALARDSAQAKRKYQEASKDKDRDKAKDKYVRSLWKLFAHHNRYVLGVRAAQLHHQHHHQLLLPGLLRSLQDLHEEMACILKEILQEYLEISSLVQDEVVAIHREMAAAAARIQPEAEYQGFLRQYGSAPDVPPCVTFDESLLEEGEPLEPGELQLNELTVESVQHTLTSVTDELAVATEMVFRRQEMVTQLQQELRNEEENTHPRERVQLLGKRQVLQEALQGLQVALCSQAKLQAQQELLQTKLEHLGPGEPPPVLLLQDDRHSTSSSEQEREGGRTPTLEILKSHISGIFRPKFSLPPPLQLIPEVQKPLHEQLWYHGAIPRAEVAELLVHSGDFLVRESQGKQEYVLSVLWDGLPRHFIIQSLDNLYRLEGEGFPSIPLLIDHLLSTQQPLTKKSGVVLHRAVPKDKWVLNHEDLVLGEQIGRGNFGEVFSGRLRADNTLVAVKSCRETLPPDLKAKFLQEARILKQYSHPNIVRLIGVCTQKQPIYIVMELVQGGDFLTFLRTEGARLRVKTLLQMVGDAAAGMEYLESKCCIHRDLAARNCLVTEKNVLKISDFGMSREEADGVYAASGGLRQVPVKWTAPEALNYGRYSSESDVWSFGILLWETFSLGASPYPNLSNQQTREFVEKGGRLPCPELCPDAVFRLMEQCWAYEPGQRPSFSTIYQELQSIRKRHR
ROCK-I, sequence (Q13464 whole entry, species assumed): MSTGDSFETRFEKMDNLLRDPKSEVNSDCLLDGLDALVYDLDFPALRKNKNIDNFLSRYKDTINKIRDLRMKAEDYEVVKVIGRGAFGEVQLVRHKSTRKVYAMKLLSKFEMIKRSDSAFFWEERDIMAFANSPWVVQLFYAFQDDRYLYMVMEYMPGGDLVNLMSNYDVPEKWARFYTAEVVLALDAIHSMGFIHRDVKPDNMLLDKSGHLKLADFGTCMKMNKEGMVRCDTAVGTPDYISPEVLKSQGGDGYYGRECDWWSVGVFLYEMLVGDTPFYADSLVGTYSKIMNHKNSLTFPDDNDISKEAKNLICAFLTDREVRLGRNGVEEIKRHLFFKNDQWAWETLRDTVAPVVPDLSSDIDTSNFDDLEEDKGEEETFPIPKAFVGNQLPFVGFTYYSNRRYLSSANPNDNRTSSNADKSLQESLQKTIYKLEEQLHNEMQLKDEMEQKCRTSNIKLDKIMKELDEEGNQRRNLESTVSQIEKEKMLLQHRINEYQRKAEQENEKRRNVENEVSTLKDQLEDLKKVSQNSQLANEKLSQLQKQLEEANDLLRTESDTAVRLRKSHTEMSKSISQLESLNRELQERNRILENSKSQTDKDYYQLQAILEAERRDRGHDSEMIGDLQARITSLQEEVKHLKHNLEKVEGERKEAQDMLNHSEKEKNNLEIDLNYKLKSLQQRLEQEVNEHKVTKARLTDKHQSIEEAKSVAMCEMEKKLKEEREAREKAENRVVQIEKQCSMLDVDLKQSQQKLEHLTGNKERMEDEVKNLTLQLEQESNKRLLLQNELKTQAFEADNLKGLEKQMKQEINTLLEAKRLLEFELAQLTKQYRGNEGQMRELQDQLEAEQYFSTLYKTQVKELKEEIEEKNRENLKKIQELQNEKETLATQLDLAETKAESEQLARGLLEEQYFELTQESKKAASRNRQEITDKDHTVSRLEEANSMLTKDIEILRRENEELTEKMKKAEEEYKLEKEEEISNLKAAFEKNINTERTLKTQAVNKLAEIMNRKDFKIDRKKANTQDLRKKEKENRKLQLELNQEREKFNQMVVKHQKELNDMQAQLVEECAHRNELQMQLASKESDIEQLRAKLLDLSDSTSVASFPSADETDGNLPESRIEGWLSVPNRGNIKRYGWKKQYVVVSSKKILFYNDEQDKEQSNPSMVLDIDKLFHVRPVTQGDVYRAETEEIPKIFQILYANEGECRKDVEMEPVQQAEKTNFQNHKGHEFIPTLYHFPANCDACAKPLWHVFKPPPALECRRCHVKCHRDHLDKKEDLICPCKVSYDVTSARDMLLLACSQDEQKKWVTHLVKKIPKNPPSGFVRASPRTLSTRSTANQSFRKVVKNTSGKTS
PI 3-Kγ, sequence (P48736 whole entry, species assumed): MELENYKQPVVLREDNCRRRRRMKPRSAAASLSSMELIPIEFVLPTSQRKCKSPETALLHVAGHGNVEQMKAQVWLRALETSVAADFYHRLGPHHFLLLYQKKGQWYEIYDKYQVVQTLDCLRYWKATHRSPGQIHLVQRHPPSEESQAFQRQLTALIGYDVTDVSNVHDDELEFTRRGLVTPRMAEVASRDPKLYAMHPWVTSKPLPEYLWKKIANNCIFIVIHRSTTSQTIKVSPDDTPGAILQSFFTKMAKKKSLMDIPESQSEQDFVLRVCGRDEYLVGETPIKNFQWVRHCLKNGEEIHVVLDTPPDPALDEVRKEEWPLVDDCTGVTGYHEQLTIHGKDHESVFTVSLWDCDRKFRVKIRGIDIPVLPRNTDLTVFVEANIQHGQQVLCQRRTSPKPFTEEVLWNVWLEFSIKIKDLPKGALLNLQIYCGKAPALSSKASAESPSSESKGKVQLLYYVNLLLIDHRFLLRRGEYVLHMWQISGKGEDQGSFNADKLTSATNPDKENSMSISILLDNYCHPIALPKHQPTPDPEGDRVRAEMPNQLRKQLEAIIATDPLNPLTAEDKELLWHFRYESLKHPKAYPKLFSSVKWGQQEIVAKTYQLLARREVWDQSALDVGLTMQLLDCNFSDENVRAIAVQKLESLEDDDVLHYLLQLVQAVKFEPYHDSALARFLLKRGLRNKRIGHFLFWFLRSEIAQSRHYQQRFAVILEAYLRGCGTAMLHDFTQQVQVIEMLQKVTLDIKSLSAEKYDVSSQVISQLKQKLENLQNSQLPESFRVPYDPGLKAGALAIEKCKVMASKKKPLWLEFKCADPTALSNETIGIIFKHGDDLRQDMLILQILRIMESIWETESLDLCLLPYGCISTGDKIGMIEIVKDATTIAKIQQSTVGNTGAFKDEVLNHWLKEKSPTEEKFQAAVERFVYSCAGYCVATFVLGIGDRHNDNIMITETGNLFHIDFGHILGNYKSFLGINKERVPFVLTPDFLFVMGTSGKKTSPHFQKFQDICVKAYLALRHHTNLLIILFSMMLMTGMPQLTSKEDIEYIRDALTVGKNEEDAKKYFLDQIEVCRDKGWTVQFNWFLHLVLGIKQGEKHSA

CC(=O)c1cc2c(=O)c3c(C(=O)O)c(O)c(O)cc3oc2c(C(C)=O)c1-c1coc2cc(O)c(O)c(C(=O)O)c2c1=O [SM-345431, Vinaxanthone]
IC50 (TrkB): > 10 µM | IC50 (PI 3-Kγ): > 10 µM | IC50 (Fyn): > 10 µM | IC50 (MEK1): > 10 µM | IC50 (EphA2): > 10 µM | IC50 (ROCK-I): > 10 µM | IC50 (MAPK2): > 10 µM | IC50 (SAPK2a): > 10 µM | IC50 (EGFR): 0.9 µM | IC50 (CDK5/p35): > 10 µM | IC50 (KDR): > 10 µM | IC50 (FGFR1): > 10 µM | IC50 (MEK4): > 10 µM | IC50 (EphB2): 0.68 µM | IC50 (Flt3): > 10 µM | IC50 (cSRC): > 10 µM | IC50 (IGF-1R): > 10 µM | IC50 (Fes): > 10 µM | IC50 (CaMKII): > 10 µM | IC50 (FGFR4): 0.64 µM | IC50 (PAK2): > 10 µM | IC50 (Flt1): > 10 µM | IC50 (PKBα): > 10 µM | IC50 (EphB4): > 10 µM | IC50 (MKK6): > 10 µM | IC50 (PKCγ): > 10 µM | IC50 (EphA4): 0.8 µM | IC50 (GSK3β): > 10 µM | IC50 (JAK3): > 10 µM | IC50 (PKBβ): > 10 µM | IC50 (PAK4): > 10 µM | IC50 (FGFR3): 0.77 µM | IC50 (FGFR2): > 10 µM
